Results as given in PubChem BioAssay (NCI).
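Protocol summary: plate cells (96-well), add compound at 5 concentrations, incubate 48 h, interpolate endpoints linearly. TGI marks complete inhibition of growth.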

Experiments:
Experiment in all cases: NCI tumour cell line growth inhibition, 48 h
RXF 393 renal = tested on: RXF 393 renal
ACHN renal = tested on: ACHN renal
OVCAR-4 ovarian = tested on: OVCAR-4 ovarian
KM12 colon = tested on: KM12 colon
LOX IMVI melanoma = tested on: LOX IMVI melanoma
M19-MEL melanoma = tested on: M19-MEL melanoma
SN12C renal = tested on: SN12C renal
NCI-H23 lung = tested on: NCI-H23 lung
NCI-H522 lung = tested on: NCI-H522 lung
HL-60(TB) leukemia = tested on: HL-60(TB) leukemia
A549 NSCLC = tested on: A549 NSCLC
KM20L2 colon = tested on: KM20L2 colon
SK-MEL-28 melanoma = tested on: SK-MEL-28 melanoma
RPMI-8226 leukemia = tested on: RPMI-8226 leukemia
DMS 114 small cell lung = tested on: DMS 114 small cell lung
786-0 renal = tested on: 786-0 renal
LXFL 529 NSCLC = tested on: LXFL 529 NSCLC
SF-295 CNS = tested on: SF-295 CNS
MOLT-4 leukemia = tested on: MOLT-4 leukemia
HCC-2998 colon = tested on: HCC-2998 colon
U251 CNS = tested on: U251 CNS
HCT-116 colon = tested on: HCT-116 colon
NCI-H460 lung = tested on: NCI-H460 lung
HT29 colon = tested on: HT29 colon
HOP-62 NSCLC = tested on: HOP-62 NSCLC
IGROV1 ovarian = tested on: IGROV1 ovarian
HCT-15 colon = tested on: HCT-15 colon
M14 melanoma = tested on: M14 melanoma
K-562 leukemia = tested on: K-562 leukemia
UACC-257 melanoma = tested on: UACC-257 melanoma
HOP-92 NSCLC = tested on: HOP-92 NSCLC
COLO 205 colon = tested on: COLO 205 colon
EKVX NSCLC = tested on: EKVX NSCLC
SF-539 CNS = tested on: SF-539 CNS
OVCAR-3 ovarian = tested on: OVCAR-3 ovarian
SNB-75 CNS = tested on: SNB-75 CNS
A498 renal = tested on: A498 renal
CCRF-CEM leukemia = tested on: CCRF-CEM leukemia
SK-OV-3 ovarian = tested on: SK-OV-3 ovarian
SK-MEL-2 melanoma = tested on: SK-MEL-2 melanoma
SR leukemia = tested on: SR leukemia
SNB-78 CNS = tested on: SNB-78 CNS
OVCAR-5 ovarian = tested on: OVCAR-5 ovarian
SK-MEL-5 melanoma = tested on: SK-MEL-5 melanoma
DLD-1 colon = tested on: DLD-1 colon
MALME-3M melanoma = tested on: MALME-3M melanoma
UACC-62 melanoma = tested on: UACC-62 melanoma
SW-620 colon = tested on: SW-620 colon
XF 498 CNS = tested on: XF 498 CNS
CAKI-1 renal = tested on: CAKI-1 renal
SNB-19 CNS = tested on: SNB-19 CNS
UO-31 renal = tested on: UO-31 renal
OVCAR-8 ovarian = tested on: OVCAR-8 ovarian
NCI-H226 lung = tested on: NCI-H226 lung
TK-10 renal = tested on: TK-10 renal
DMS 273 small cell lung = tested on: DMS 273 small cell lung
SF-268 CNS = tested on: SF-268 CNS

Measured: TGI

C/C=C/C1(C)/C(=N\O)C(C)(CCC)C(=O)N1O (configuration not stated)
not listed: SF-268 CNS
> 100 µM: all other assays above

CCc1n[nH]c(=S)n1/N=C/c1ccc(-c2ccc([N+](=O)[O-])cc2)o1
not listed: RXF 393 renal | DMS 114 small cell lung | EKVX NSCLC | A498 renal | CCRF-CEM leukemia | SK-MEL-5 melanoma
> 100 µM: all other assays above
